What all share (type): cell-based, human
The subject of one assay is MonoMac-6 cells. Nature of the assay: Cytokine Profile Assay (CPA): neopterin production by stimulated MonoMac-6 cells, ELISA. To be noted: for neopterin release (in words): chemicals, in the presence or absence of IFN-γ. An excerpt: (§1) The instructions of the manufacturers were followed. All these tests are enzyme immunoassays (EIA:s). The principle is that microtiter plate wells are labelled with a cytokine specific capture antibody. If cytokine is present in the samples added to the wells it will be captured to the bottom of the well. […] The reaction is thereafter measured as colour developed after addition of a substrate for the enzyme. The values for the test wells are compared with a standard curve obtained by adding a series of known amounts of cytokine. The values obtained for control wells with no substance added are used as background values for cytokine levels.
The myelomonocytic cell line MonoMac-6 (obtained from DSMZ, accession number ACC 124, Prof. H. W. L. Ziegler-Heitbrock, Inst. For Immunology, University of Munich, Munich) was cultured in cell culture flasks (Corning). Cells were cultured in RPMI 1640 medium (Gibco BRL), containing 20 mM HEPES and L-glutamine and supplemented with 10% heat-inactivated foetal bovine serum (Gibco BRL), penicillin (100 U/mL; Sigma-Aldrich), streptomycin (100 μg/mL; Sigma-Aldrich), sodium pyruvate (1.0 mM;Gibco BRL), human insulin (9 μg/mL; Gibco BRL) and non-essential amino acids (Gibco BRL) or cultured in Panserin 411 (Pan Biotech) supplemented with penicillin (100 U/mL), streptomycin (100 μg/mL).
The cells were split approximately 1:3 the day before stimulation. The stimulation procedure was performed in three steps. The first step was pre-dilution of test substances, to double the final concentration, in cell culture medium. Furthermore, Interferon-γ (IFN-γ) (100 U, PreproTech) was added in the cell culture media for 24 or 48 hours during stimulation of cells with test substances. The number of cells was then determined by trypan blue exclusion and the cells were diluted to twice the final test concentration (2×10^6 cells/mL) if not otherwise indicated and 100 μl of cell suspension was added per well in 96 well tissue culture plates (Corning). Finally, a 100 μl of pre-diluted test substance (triplicate cultures) was added to the tissue culture plates. […] The stimulated cells were cultured at 37° C., 5% CO2, for 24 or 48 hours. The cell suspension was transferred to new cell culture plates and stored at −20° C. until analyzed. Thereafter the cell suspension was analyzed for presence of neopterin and IL-10 by ELISA (IBL-Hamburg) following the manufacturers instructions.
For orientation: ELISA stands for enzyme-linked immunosorbent assay.

The test system of another assay is MM6-cells. Description: CPA: IL-10 levels of stimulated MM6 cells, ELISA. The note with it: 25-200 μg/ml; 48 hours; with IFN-γ 100 U/ml.
Description: as §1, with “levels. […]” for “levels.”
(§2) The cells were split approximately 1:3 the day before stimulation. […] The number of cells was then determined by trypan blue exclusion and the cells were diluted to twice the final test concentration (2×10^6 cells/mL) if not otherwise indicated and 100 μl of cell suspension was added per well in 96 well tissue culture plates (Corning). […] The cell suspension was transferred to new cell culture plates and stored at −20° C. until analyzed. Thereafter the cell suspension was analyzed for presence of neopterin and IL-10 by ELISA (IBL-Hamburg) following the manufacturers instructions.

A further assay concerns THP-1 cells. Description: CPA: neopterin production by stimulated THP-1 cells. To be noted: RPMI+10% FCS, 24 hrs, different concentrations.
Description: as §1
as §2, with “stimulation. The stimulation procedure was performed in three steps. The first step was pre-dilution of test substances, to double the final concentration, in cell culture medium.” for “stimulation.”

The mark [1] stands for this setting: proteins, RPMI+10% FCS, 24 hrs, with IFN-γ 100 U/ml, over the tested concentrations.

Read-outs that look alike come from different tables or passages of the source.

Turning to “Soy lectin: Lectin: glycine max (soy been) (Medicago), low potential of being allergenic”, the “neopterin response (in words)” value is given as “did not induce any neopterin response above the levels of control cells” in the assay with MonoMac-6 cells (6.6 μg/ml, RPMI+10% FCS, 24 hrs, with IFN-γ); “comparable to the cellular response towards Ara h 2 at 6.6 μg/ml” with MonoMac-6 cells (180 μg/ml, RPMI+10% FCS, 24 hrs, with IFN-γ); “Weak cellular neopterin responce” in the assay with MonoMac-6 cells (setting [1]); “did not induce neopterin above background levels” with MonoMac-6 cells (proteins, RPMI+10% FCS, 24 hrs, with IFN-γ 100 U/ml, over the tested concentrations, listed as soy lectin). For `O=[N+]([O-])c1ccc(Cl)c([N+](=O)[O-])c1` [DNCB, 2,4 Dinitrocholorobenzene, reference compound], the “neopterin release (in words)” value with MonoMac-6 cells (RPMI+10% FCS, 24 hrs) is “none of the chemicals tested induced any neopterin release above background levels”. Take `Oc1ccccc1` [phenol, reference compound]: the “neopterin response (in words)” value with MonoMac-6 cells is given as “induced a neopterin response above background levels”. In the case of `CCOC(=O)c1ccc(N)cc1` [benzocaine, Benzocaine, reference compound], the “neopterin response (in words)” value with MonoMac-6 cells (chemical at 30 μg/ml, with IFN-γ, RPMI+10% FCS, 24 hrs) is “induced a neopterin response above background levels”. For `[Cl][Pt-2]([Cl])([Cl])([Cl])([Cl])[Cl].[NH4+].[NH4+]` [HCPt, Ammonium hexachloroplatinate, reference compound], the “neopterin release (in words)” value in the assay on MonoMac-6 cells (RPMI+10% FCS, 24 hrs) is “none of the chemicals tested induced any neopterin release above background levels”. For gelatin, the “neopterin response (in words)” value in the assay with MonoMac-6 cells (setting [1]) is given as “did not induce any neopterin production above the background levels”. For the same compound, in the assay on MM6-cells, the “IL-10 levels (in words)” value was “did not induce IL-10 above background levels”. For Lipopolysaccharide [LPS], the “neopterin response (in words)” value in the assay with THP-1 cells is “Dose response was seen”.

(Values after patent publication US20110053163A1, “Biomarker” (BIOVATOR TECHNOLOGIES AB, priority 2007, published 2011).)
